Laboratory results taken from patent US6743640B2, “Fluorescent polymer-QTL approach to biosensing” (priority 2000, dated 2004).

Biological target: avidin (Gallus gallus, UniProt P02701)
Assay: Competitive avidin-biotin fluorescence quench assay with 263 PRU cyanine polymer
Method: A preferred embodiment for using a cyanine polymer/QTL approach consists of a competitive assay based on selective quenching of a cyanine polymer solution. For example, a 263 polymer repeat unit (PRU) cyanine polymer can be conveniently used in a fluorescence quench competitive bioassay. A competitive assay involving the avidin-biotin receptor-ligand system was conducted as follows: 500 μl of 0.1 μM of this polymer was added to the filtrate (lower) chamber of each of 3 separate Microcon YM-30 centrifugal filter vials. In each of these devices the filtrate chamber is separated from the retentate (upper) chamber by a 30 kilodalton (KD) nominal molecular weight cutoff (NMWCO) cellulose membrane. This membrane is impermeable to the 66 KD protein avidin but allows the biotin-anthraquinone conjugate to pass. […] Since each avidin has four biotin binding sites, this sub-stoichiometric ratio ensures full binding of all QTL conjugate to avidin. The three retentate chambers were charged with a.) 0.5 μM D-Biotin, b. and c.) 0.8 μM AQS-biotin conjugate complexed with 1.0 μM avidin. The 3 tubes were then each sealed and incubated for 10 minutes, after which time 0.5 μM D-Biotin was added to vial c. […] The fluorescence emission of all three filtrates was then measured at 20.0° C.+/−0.1° C. on a SPEX FluoroMax-3. […]

avidin, sequence (P02701 25-152, species assumed): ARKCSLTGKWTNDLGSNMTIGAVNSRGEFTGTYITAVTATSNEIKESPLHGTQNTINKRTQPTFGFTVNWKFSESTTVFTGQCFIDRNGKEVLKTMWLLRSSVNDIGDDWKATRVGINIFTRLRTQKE

O=C(O)CCCC[C@@H]1SC[C@@H]2NC(=O)N[C@@H]21 [biotin, D-Biotin]
quenching of cyanine polymer after adding competitor to QTL-avidin solution (0.8 μM AQS-biotin conjugate with 1.0 μM avidin): quenching occurred
quenching of cyanine polymer in filtrate, sample alone (sample alone in retentate chamber, 30 KD membrane, 263 PRU polymer 0.1 μM): no quenching
